The first data set is described as follows: Inhibition of recombinant human CYP1A1 expressed in HEK293 cells assessed as reduction in benzo(a)pyrene-induced toxicity by measuring B[a]P EC50 at 2 times IC50 by MTT assay (Rvb = 0.8 +/- 0.14 uM).
With `CCOc1cc(/C=C/C(=O)c2ccncc2)cc(OCC)c1OCC`, the EC50 came to 14 µM.

Turning to `CCOc1cc(/C=C/C(=O)c2ccncc2)cc(OC)c1OCC`, the EC50 came to 14 µM.

`CCOc1cc(/C=C/C(=O)c2ccncc2)cc(OC)c1OC`: the concentration giving a half-maximal response (EC50) came to 14 µM.

For the compound `COc1cc(/C=C/C(=O)c2ccncc2)cc(OC)c1OC`, the EC50 amounted to 14 µM.

The nature of a further data set: Inhibition of recombinant human CYP1B1 expressed in HEK293 cells assessed as potentiation of cisplatin-induced cytotoxicity by measuring cisplatin EC50 by MTT assay (Rvb = 65.01 +/- 7.01 uM).
Consider `COc1cccc(/C=C/C(=O)c2ccncc2)c1`, for which the EC50 worked out at 10 µM.

For `COc1cc(/C=C/C(=O)c2ccncc2)cc(OC)c1`, the half-maximal effective concentration (EC50) amounted to 10 µM.

On to `COc1ccccc1/C=C/C(=O)c1ccncc1`, for which the EC50 turned out to be 10 µM.

In the case of `COc1ccc(/C=C/C(=O)c2ccncc2)c(OC)c1OC`, the EC50 is 10 µM.

These data come from BindingDB's records for doi:10.1016/j.bmcl.2017.11.009 (De Montfort University, 2017).
